Measurements as given in PubChem BioAssay AID248 (DTP/NCI, 2004).
“And” between values parts separate entries of the source, which are not always exact repeats. Equal values may be shown once. Inconclusive results and toxic doses are left out. No stated cut-off is given here; in the data, active means T/C of 150% or more; inactive means T/C below 125%.

System: L1210 leukemia ip in BDF1 mice, survival T/C
Test: NCI In Vivo Anticancer Drug Screen. Data for tumor model L1210 Leukemia (intraperitoneal) in B6D2F1 (BDF1) mice
Conditions: endpoint: mean survival time, higher = longer survival
Procedure, shortened: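 Tumor cells were implanted, animals were treated, and survival was followed. The result divides the treated measurement by the vehicle-control measurement.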

[1] = dose: 5.0 mg/kg/injection, schedule: Q01DX001 (ip), vehicle: saline
[2] = dose: 10.0 mg/kg/injection, schedule: Q01DX001 (ip), vehicle: saline
[3] = dose: 100.0 mg/kg/injection, schedule: Q01DX001 (ip), vehicle: saline with Tween-80
[4] = dose: 200.0 mg/kg/injection, schedule: Q01DX001 (ip), vehicle: saline with Tween-80
[5] = dose: 100.0 mg/kg/injection, schedule: Q01DX001 (ip), vehicle: saline
[6] = dose: 200.0 mg/kg/injection, schedule: Q01DX001 (ip), vehicle: saline
[7] = dose: 400.0 mg/kg/injection, schedule: Q01DX001 (ip), vehicle: saline
[8] = dose: 100.0 mg/kg/injection, schedule: Q01DX001 (ip), vehicle: Klucel (hydroxypropylcellulose) (HPC)
[9] = dose: 100.0 mg/kg/injection, schedule: Q04DX003 (ip), vehicle: Klucel (hydroxypropylcellulose) (HPC)
[10] = dose: 200.0 mg/kg/injection, schedule: Q01DX001 (ip), vehicle: Klucel (hydroxypropylcellulose) (HPC)
[11] = dose: 200.0 mg/kg/injection, schedule: Q04DX003 (ip), vehicle: Klucel (hydroxypropylcellulose) (HPC)
[12] = dose: 100.0 mg/kg/injection, schedule: Q01DX001 (ip), vehicle: carboxymethylcellulose (CMC)
[13] = dose: 200.0 mg/kg/injection, schedule: Q01DX001 (ip), vehicle: carboxymethylcellulose (CMC)
[14] = dose: 400.0 mg/kg/injection, schedule: Q01DX001 (ip), vehicle: carboxymethylcellulose (CMC)
[15] = dose: 50.0 mg/kg/injection, schedule: Q01DX009 (ip), vehicle: saline with Tween-80
[16] = dose: 100.0 mg/kg/injection, schedule: Q01DX009 (ip), vehicle: saline with Tween-80
[17] = dose: 200.0 mg/kg/injection, schedule: Q01DX009 (ip), vehicle: saline with Tween-80
[18] = dose: 75.0 mg/kg/injection, schedule: Q01DX001 (ip), vehicle: saline
[19] = dose: 150.0 mg/kg/injection, schedule: Q01DX001 (ip), vehicle: saline
[20] = dose: 100.0 mg/kg/injection, schedule: Q01DX001 (ip), vehicle: other
[21] = dose: 200.0 mg/kg/injection, schedule: Q01DX001 (ip), vehicle: other
[22] = dose: 400.0 mg/kg/injection, schedule: Q01DX001 (ip), vehicle: other
[23] = dose: 100.0 mg/kg/injection, schedule: Q04DX003 (ip), vehicle: saline with Tween-80
[24] = dose: 200.0 mg/kg/injection, schedule: Q04DX003 (ip), vehicle: saline with Tween-80
[25] = dose: 400.0 mg/kg/injection, schedule: Q04DX003 (ip), vehicle: saline with Tween-80
[26] = dose: 100.0 mg/kg/injection, schedule: Q01DX009 (ip), vehicle: Klucel (hydroxypropylcellulose) (HPC)
[27] = dose: 200.0 mg/kg/injection, schedule: Q01DX009 (ip), vehicle: Klucel (hydroxypropylcellulose) (HPC)
[28] = dose: 100.0 mg/kg/injection, schedule: Q01DX009 (ip), vehicle: saline
[29] = dose: 200.0 mg/kg/injection, schedule: Q01DX009 (ip), vehicle: saline
[30] = dose: 400.0 mg/kg/injection, schedule: Q01DX009 (ip), vehicle: saline

Measured: T/C

CC(=O)[O][Hg][CH]1CCCCC1O (stereo not drawn)
inactive: [1] 103 % of control | [2] 95 % of control | dose: 12.3 mg/kg/injection, schedule: Q01DX009 (ip), vehicle: saline with Tween-80 106 % of control | dose: 20.0 mg/kg/injection, schedule: Q01DX001 (ip), vehicle: saline 97 % of control | dose: 40.0 mg/kg/injection, schedule: Q01DX001 (ip), vehicle: saline 95 % of control | dose: 80.0 mg/kg/injection, schedule: Q01DX001 (ip), vehicle: saline 102 % of control

CCCCCCCCCCC(CCCCCCCCCC)CC(C)(C)C
inactive: dose: 50.0 mg/kg/injection, schedule: Q01DX001 (ip), vehicle: saline with Tween-80 103 % of control | [3] 96 % of control | [4] 103 % of control

O=[N+]([O-])c1sc2ccccc2c1/C=C/c1csc2ccccc12
inactive: [5] 87 % of control | [6] 91 % of control | [7] 97 % of control

O=C(O)C1=CCCC1
inactive: dose: 222.0 mg/kg/injection, schedule: Q01DX Z (ip), vehicle: saline 103 % of control | dose: 333.0 mg/kg/injection, schedule: Q01DX Z (ip), vehicle: saline 102 % of control | dose: 500.0 mg/kg/injection, schedule: Q01DX Z (ip), vehicle: saline 96 % of control

CNc1cc(Cl)c(C#N)c(Cl)c1
inactive: [8] 105 % of control | [9] 94 % of control | [10] 105 % of control | [11] 100 % of control | dose: 400.0 mg/kg/injection, schedule: Q01DX001 (ip), vehicle: Klucel (hydroxypropylcellulose) (HPC) 103 % of control | dose: 400.0 mg/kg/injection, schedule: Q04DX003 (ip), vehicle: Klucel (hydroxypropylcellulose) (HPC) 99 % of control

O=C1c2cc(Cl)ccc2-c2c(F)cc(Cl)cc21
inactive: [12] 103 % of control | [13] 105 % of control | [14] 105 % of control

NS(=O)(=O)c1ccc(N=Nc2nc3[nH]c(=O)[nH]c(=O)c3[nH]2)cc1
inactive: [15] 97 % of control | [16] 94 % of control | [17] 94 % of control

COc1ccc(C(=O)C(C)CN2CCOCC2)cc1 (stereo not drawn)
inactive: [5] 102 % of control | [6] 105 % of control | [7] 102 % of control

Cc1ccc(/C(Cc2ccccc2)=N\NC(N)=O)cc1
inactive: [5] 92 % of control | [6] 98 % of control | [7] 98 % of control

CCOC(=O)C1CC(O)CN1 (stereo not drawn)
inactive: dose: 100.0 mg/kg/injection, schedule: Q04DX003 (ip), vehicle: saline sonified 97 % of control | dose: 200.0 mg/kg/injection, schedule: Q04DX003 (ip), vehicle: saline sonified 100 % of control | dose: 400.0 mg/kg/injection, schedule: Q04DX003 (ip), vehicle: saline sonified 87 % of control

COc1nn(C)c(=O)c2cccnc12
inactive: [18] 96 % of control | [19] 98 % of control

CCOc1ccccc1/C=N\NC(=O)c1ccco1
inactive: [12] 106 % of control | [13] 95 % of control | [14] 104 % of control

COc1cc(Cl)ccc1NC(=O)COc1ccc(Cl)cc1
inactive: [16] 92 % of control | [17] 92 % of control | dose: 400.0 mg/kg/injection, schedule: Q01DX009 (ip), vehicle: saline with Tween-80 86 % of control

COc1cc(N)c(CC2c3cc(OC)c(OC)cc3CCN2C)cc1OC (stereo not drawn)
inactive: dose: 75.0 mg/kg/injection, schedule: Q01DX001 (ip), vehicle: carboxymethylcellulose (CMC) 95 % of control | dose: 150.0 mg/kg/injection, schedule: Q01DX001 (ip), vehicle: carboxymethylcellulose (CMC) 95 % of control

O=C(/C=C(\c1ccccc1)N1CC1)c1ccccc1
inactive: [9] 106 % of control | [11] 110 % of control

CCC(C)COC(=O)c1ccccc1-c1ccccc1C(=O)OCC(C)CC (stereo not drawn)
inactive: [20] 96 % of control | [21] 98 % of control | [22] 96 % of control

CCC1(O)C(=O)OCc2c1ccn(Cc1ccc3ccccc3c1)c2=O (stereo not drawn)
inactive: dose: 25.0 mg/kg/injection, schedule: Q01DX001 (ip), vehicle: saline 92 % of control | dose: 50.0 mg/kg/injection, schedule: Q01DX001 (ip), vehicle: saline 97 % of control | [5] 96 % of control | [6] 94 % of control

O=C(/C=C/c1ccccc1)NC(=S)Nc1cccc2ccccc12
inactive: dose: 25.0 mg/kg/injection, schedule: Q01DX009 (ip), vehicle: saline with Tween-80 96 % of control and 90 % of control | [15] 94 % of control | [3] 93 % of control | dose: 100.0 mg/kg/injection, schedule: Q04DX002 (ip), vehicle: alcohol 87 % of control | [23] 86 % of control | [4] 97 % of control | dose: 200.0 mg/kg/injection, schedule: Q04DX002 (ip), vehicle: alcohol 97 % of control | [24] 100 % of control | dose: 400.0 mg/kg/injection, schedule: Q01DX001 (ip), vehicle: saline with Tween-80 93 % of control | dose: 400.0 mg/kg/injection, schedule: Q04DX002 (ip), vehicle: alcohol 93 % of control | [25] 105 % of control

O=C(O)c1ccccc1C(=O)Nc1ccc([N+](=O)[O-])cc1Cl
inactive: dose: 50.0 mg/kg/injection, schedule: Q01DX009 (ip), vehicle: Klucel (hydroxypropylcellulose) (HPC) 94 % of control | [26] 95 % of control | [9] 97 % of control | [27] 89 % of control | [11] 97 % of control

O=C(COc1ccc(Cl)c(Cl)c1)NCc1cc[n+](Cc2ccc(S(=O)(=O)F)cc2)cc1
inactive: [8] 95 % of control | [10] 95 % of control

CC(C)(C)C1CCC(Br)C(Cl)C1 (stereo not drawn)
inactive: [28] 98 % of control | [29] 105 % of control | [30] 100 % of control

c1cc[c]([Bi]([c]2ccccc2)[c]2ccccc2)cc1
inactive: dose: 50.0 mg/kg/injection, schedule: Q01DX001 (ip), vehicle: other 95 % of control | [20] 97 % of control | [23] 97 % of control | [21] 97 % of control | [24] 102 % of control | [22] 97 % of control | [25] 103 % of control

Cc1cc(Br)c2c(C)ccc(C)c2n1
inactive: dose: 2.0 mg/kg/injection, schedule: Q01DX001 (ip), vehicle: saline 98 % of control | [1] 102 % of control | [2] 96 % of control

CCOC(=O)C1CC2(OCCO2)c2c(OC)ccc(Cl)c2C1C (stereo not drawn)
inactive: [18] 102 % of control | [19] 96 % of control | dose: 300.0 mg/kg/injection, schedule: Q01DX001 (ip), vehicle: saline 94 % of control

NC(=O)Cc1cc(=O)[nH]c(=O)[nH]1
inactive: dose: 50.0 mg/kg/injection, schedule: Q01DX009 (ip), vehicle: saline 107 % of control | dose: 50.0 mg/kg/injection, schedule: Q04DX003 (ip), vehicle: saline with Tween-80 96 % of control | [28] 102 % of control | [23] 97 % of control | [29] 100 % of control | [24] 94 % of control | [30] 97 % of control | [25] 91 % of control

CN(CCO)C1CCCCCCC1
inactive: dose: 100.0 mg/kg/injection, schedule: Q01DX001 (ip), vehicle: acetone 100 % of control

CCCCCCCCCCCCCCCCCCNC(=O)Nc1ccc(C(C)C)cc1
inactive: [26] 95 % of control | [9] 89 % of control | [27] 92 % of control | [11] 89 % of control | dose: 400.0 mg/kg/injection, schedule: Q01DX009 (ip), vehicle: Klucel (hydroxypropylcellulose) (HPC) 92 % of control
